Data as given in US8658787B2, “Galacto-rhamnogalacturonate compositions for the treatment of non-alcoholic steatohepatitis and non-alcoholic fatty liver disease” (Galectin Therapeutics Inc., priority 2011, dated 2014).

Test system: STAM mice
Experiment: STAM mouse model of steatohepatitis (diabetes induced, high fat diet), treatment with GR-MD-02
Format: in vivo
Method: The experimental model used in this example is the mouse in which diabetes was induced and a high fat diet was administered, a model that has been called STAM mice. […] This is a proven model in which the mice consistently develop NASH with hepatocyte fat accumulation, evidence of hepatocyte toxicity, portal and lobular inflammatory infiltrates, peri-sinusoidal fibrosis, advanced fibrosis with nodule formation, cirrhosis, and ultimately hepatocellular carcinoma in a certain percentage of animals.
The progression of disease appearance is fatty liver (FL) by five weeks of age, steatohepatitis (NASH) by 7 weeks of age, fibrosis (Fib) by 9 weeks of age, nodule formation (N) by 13 weeks of age, and some animals developing hepatocellular carcinoma (HC) by 16 weeks of age (FIG. 1).
GR-MD-02, produced as described in Example 1, was given in a dose of 60 mg/kg twice weekly intravenously for four (4) weeks at the each of the starting times indicated. Early treatment was given for weeks 6 through 9 and late therapy was given for weeks 9 through 12.
The NFLD activity score was used to evaluate the severity of liver disease on histological sections of liver and gives points for three aspects of NASH pathology including, steatosis (0 (<5%), 1 (5-33%), 2 (33-66%), or 3 (>66%)), hepatocyte ballooning (0 (none), 1, (few), or […]), and lobular inflammation (0 (no foci), 1 (<2 foci/200× field), 2 (2-4 foci/200× field), or 3 (>4 foci/200× field)). The total number of points is the NFLD activity score.

Question: What does the source list for galacto-rhamnogalacturonate [GR-MD-02]?
Answer: whole blood glucose (60 mg/kg twice weekly i.v., early or late treatment schedule, vs vehicle control): no statistical differences; changes in body weight (60 mg/kg twice weekly intravenously, early (weeks 6-9) and late (weeks 9-12) treatment, vs vehicle (normal saline)): no difference in body weight; Sirius red staining of liver histology (early (6-9 weeks) and late (9-12 weeks) treatment groups, vs vehicle control): marked reduction in Sirius red staining; collagen percent area (Sirius red, computer assisted morphometric analysis) (early and late treatment groups and both combined, vs vehicle): markedly statistically significantly reduced; NFLD activity score on liver histology (average) (early treatment group (weeks 6-9), 60 mg/kg twice weekly i.v., vehicle average 5, p<0.01 vs vehicle): 3; alpha-Smooth Muscle Actin in liver tissue (immunohistochemical staining, digital morphometry) (marker for activated stellate cells, vs vehicle): marked reduction in alpha-Smooth Muscle Actin; galectin-3 in liver tissue (immunohistochemical staining, digital morphometry) (vs vehicle treated animals): marked reduction of galectin-3
